Test results as given in patent US5288720A, “Angiotensin II receptor blocking 2,3,6 substituted quinazolinones” (American Cyanamid Company, priority 1993, dated 1994).

Test system: ANGIOTENSIN II VASOPRESSOR RESPONSE
Assay: AII Challenge: blockade of angiotensin II vasopressor response in conscious SHR
Assay type: in vivo, rat (Conscious Male Okamoto-Aoki SHR)
Settings: SHR n=2
Method in brief: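 Conscious male Okamoto-Aoki SHR (16-20 weeks, ~330 g) cannulated in aorta and vena cava under local procaine; angiotensin II (human) 0.05 and 0.1 ug/kg i.v. given before and at 30-300 min after test compound i.v., i.p. or orally. Rise in systolic pressure (mmHg) expressed as % blockade versus each rat's predose response.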

[1] = 3 mg/kg i.v., AII 0.05 mcg/kg IV, 30 min post dose
[2] = 3 mg/kg i.v., AII 0.05 mcg/kg IV, 60 min post dose
[3] = 3 mg/kg i.v., AII 0.05 mcg/kg IV, 90 min post dose
[4] = 3 mg/kg i.v., AII 0.05 mcg/kg IV, 120 min post dose
[5] = 3 mg/kg i.v., AII 0.05 mcg/kg IV, 180 min post dose
[6] = 3 mg/kg i.v., AII 0.05 mcg/kg IV, 240 min post dose
[7] = 3 mg/kg i.v., AII 0.05 mcg/kg IV, 300 min post dose
[8] = 3 mg/kg i.v., AII 0.1 mcg/kg IV, 30 min post dose
[9] = 3 mg/kg i.v., AII 0.1 mcg/kg IV, 60 min post dose
[10] = 3 mg/kg i.v., AII 0.1 mcg/kg IV, 90 min post dose
[11] = 3 mg/kg i.v., AII 0.1 mcg/kg IV, 120 min post dose
[12] = 3 mg/kg i.v., AII 0.1 mcg/kg IV, 180 min post dose
[13] = 3 mg/kg i.v., AII 0.1 mcg/kg IV, 240 min post dose
[14] = 3 mg/kg i.v., AII 0.1 mcg/kg IV, 300 min post dose
[15] = 3 mg/kg p.o., AII 0.05 mcg/kg IV, 30 min post dose
[16] = 3 mg/kg p.o., AII 0.05 mcg/kg IV, 60 min post dose
[17] = 3 mg/kg p.o., AII 0.05 mcg/kg IV, 90 min post dose
[18] = 3 mg/kg p.o., AII 0.05 mcg/kg IV, 120 min post dose
[19] = 3 mg/kg p.o., AII 0.05 mcg/kg IV, 180 min post dose
[20] = 3 mg/kg p.o., AII 0.1 mcg/kg IV, 30 min post dose
[21] = 3 mg/kg p.o., AII 0.1 mcg/kg IV, 60 min post dose
[22] = 3 mg/kg p.o., AII 0.1 mcg/kg IV, 90 min post dose
[23] = 3 mg/kg p.o., AII 0.1 mcg/kg IV, 120 min post dose
[24] = 3 mg/kg p.o., AII 0.1 mcg/kg IV, 180 min post dose
[25] = 10 mg/kg p.o., AII 0.05 mcg/kg IV, 30 min post dose
[26] = 10 mg/kg p.o., AII 0.05 mcg/kg IV, 60 min post dose
[27] = 10 mg/kg p.o., AII 0.05 mcg/kg IV, 90 min post dose
[28] = 10 mg/kg p.o., AII 0.05 mcg/kg IV, 120 min post dose
[29] = 10 mg/kg p.o., AII 0.05 mcg/kg IV, 180 min post dose
[30] = 10 mg/kg p.o., AII 0.05 mcg/kg IV, 240 min post dose
[31] = 10 mg/kg p.o., AII 0.05 mcg/kg IV, 300 min post dose
[32] = 10 mg/kg p.o., AII 0.1 mcg/kg IV, 30 min post dose
[33] = 10 mg/kg p.o., AII 0.1 mcg/kg IV, 60 min post dose
[34] = 10 mg/kg p.o., AII 0.1 mcg/kg IV, 90 min post dose
[35] = 10 mg/kg p.o., AII 0.1 mcg/kg IV, 120 min post dose
[36] = 10 mg/kg p.o., AII 0.1 mcg/kg IV, 180 min post dose
[37] = 10 mg/kg p.o., AII 0.1 mcg/kg IV, 240 min post dose
[38] = 10 mg/kg p.o., AII 0.1 mcg/kg IV, 300 min post dose

CCCCc1nc2ccc(C(O)C3CCCN(C)C3=O)cc2c(=O)n1Cc1ccc(-c2ccccc2-c2nn[nH]n2)cc1 (single isomer, unassigned; isomer 1) [Example 37, 2-Butyl-6-hydroxy(1-methyl-2-oxo-3-piperidinyl)methyl]-3-[[2'-(1H-tetrazol-5-yl)[1,1'-biphenyl]-4-yl]methyl]-4(3H)-quinazolinone isomer 1]
% Inhibition of AII vasopressor response [1]: 100%
Average Change (systolic blood pressure response to AII) [1]: 0 mmHg
% Inhibition of AII vasopressor response [2]: 100%
Average Change (systolic blood pressure response to AII) [2]: 0 mmHg
% Inhibition of AII vasopressor response [3]: 100%
Average Change (systolic blood pressure response to AII) [3]: 0 mmHg
% Inhibition of AII vasopressor response [4]: 91%
Average Change (systolic blood pressure response to AII) [4]: 2.5 mmHg
% Inhibition of AII vasopressor response [5]: 55%
Average Change (systolic blood pressure response to AII) [5]: 12.5 mmHg
% Inhibition of AII vasopressor response [6]: 64%
Average Change (systolic blood pressure response to AII) [6]: 10 mmHg
% Inhibition of AII vasopressor response [7]: 36%
Average Change (systolic blood pressure response to AII) [7]: 17.5 mmHg
% Inhibition of AII vasopressor response [8]: 92%
Average Change (systolic blood pressure response to AII) [8]: 2.5 mmHg
% Inhibition of AII vasopressor response [9]: 92%
Average Change (systolic blood pressure response to AII) [9]: 2.5 mmHg
% Inhibition of AII vasopressor response [10]: 85%
Average Change (systolic blood pressure response to AII) [10]: 5 mmHg
% Inhibition of AII vasopressor response [11]: 85%
Average Change (systolic blood pressure response to AII) [11]: 5 mmHg
% Inhibition of AII vasopressor response [12]: 66%
Average Change (systolic blood pressure response to AII) [12]: 11 mmHg
% Inhibition of AII vasopressor response [13]: 23%
Average Change (systolic blood pressure response to AII) [13]: 25 mmHg
% Inhibition of AII vasopressor response [14]: 0%
Average Change (systolic blood pressure response to AII) [14]: 32.5 mmHg
% Inhibition of AII vasopressor response [15]: 53%
Average Change (systolic blood pressure response to AII) [15]: 19 mmHg
% Inhibition of AII vasopressor response [16]: 29%
Average Change (systolic blood pressure response to AII) [16]: 28.5 mmHg
% Inhibition of AII vasopressor response [17]: 29%
Average Change (systolic blood pressure response to AII) [17]: 28.5 mmHg
% Inhibition of AII vasopressor response [18]: 13%
Average Change (systolic blood pressure response to AII) [18]: 35 mmHg
% Inhibition of AII vasopressor response [19]: 0%
Average Change (systolic blood pressure response to AII) [19]: 40 mmHg
% Inhibition of AII vasopressor response [20]: -6%
Average Change (systolic blood pressure response to AII) [20]: 47.5 mmHg
% Inhibition of AII vasopressor response [21]: 30%
Average Change (systolic blood pressure response to AII) [21]: 31.5 mmHg
% Inhibition of AII vasopressor response [22]: 11%
Average Change (systolic blood pressure response to AII) [22]: 40 mmHg
% Inhibition of AII vasopressor response [23]: 22%
Average Change (systolic blood pressure response to AII) [23]: 35 mmHg
% Inhibition of AII vasopressor response [24]: 22%
Average Change (systolic blood pressure response to AII) [24]: 35 mmHg
% Inhibition of AII vasopressor response [25]: 67%
Average Change (systolic blood pressure response to AII) [25]: 17.5 mmHg
% Inhibition of AII vasopressor response [26]: 65%
Average Change (systolic blood pressure response to AII) [26]: 18.5 mmHg
% Inhibition of AII vasopressor response [27]: 62%
Average Change (systolic blood pressure response to AII) [27]: 20 mmHg
% Inhibition of AII vasopressor response [28]: 67%
Average Change (systolic blood pressure response to AII) [28]: 17.5 mmHg
% Inhibition of AII vasopressor response [29]: 57%
Average Change (systolic blood pressure response to AII) [29]: 22.5 mmHg
% Inhibition of AII vasopressor response [30]: 43%
Average Change (systolic blood pressure response to AII) [30]: 30 mmHg
% Inhibition of AII vasopressor response [31]: 52%
Average Change (systolic blood pressure response to AII) [31]: 25 mmHg
% Inhibition of AII vasopressor response [32]: 40%
Average Change (systolic blood pressure response to AII) [32]: 30 mmHg
% Inhibition of AII vasopressor response [33]: 26%
Average Change (systolic blood pressure response to AII) [33]: 37 mmHg
% Inhibition of AII vasopressor response [34]: 40%
Average Change (systolic blood pressure response to AII) [34]: 30 mmHg
% Inhibition of AII vasopressor response [35]: 55%
Average Change (systolic blood pressure response to AII) [35]: 22.5 mmHg
% Inhibition of AII vasopressor response [36]: 35%
Average Change (systolic blood pressure response to AII) [36]: 32.5 mmHg
% Inhibition of AII vasopressor response [37]: 40%
Average Change (systolic blood pressure response to AII) [37]: 30 mmHg
% Inhibition of AII vasopressor response [38]: 35%
Average Change (systolic blood pressure response to AII) [38]: 32.5 mmHg
